The text below walks through data of patent publication US20220402917A1, “COMPOUND AS SMALL MOLECULE INHIBITOR PD-1/PD-L1 AND APPLICATION THEREOF” (MEDSHINE DISCOVERY INC., priority 2019, published 2022).

The target in assay [1] is T1, PD-L1 in MDA-MR-231 cells (Homo sapiens, UniProt Q9NZQ7).
T1 construct: endogenous in cells; host or cells: MDA-MB-231
The assay is described as follows: Effect on expression level of PD-L1 in MDA-MR-231 cells (FACS). It counts as cell-based. The settings on record: 24 hours incubation, FACS detection of cell surface PD-L1. How it is done:
Experimental Example 2: Using MDA-MR-231 Cells to Detect the Effect of Compounds on the Expression Level of PD-L1
The use of a triple-negative breast cancer cell line (MDA-MB-231) is an indirect method to assess PD-L1 endocytosis. PD-L1 molecules on the cell surface can be degraded by lysosomal and proteasome pathways, and small molecule inhibitors are added to induce PD-L1 endocytosis. After co-incubating small molecules with MDA-MB-231 cells for 24 hours, flow cytometry (Fluorescence-activated Cell Sorting, FACS) is used to detect the content of PD-L1 on the cell surface, which can indirectly reflect the effect of small molecule-induced PD-L1 endocytosis. Flow cytometry (FACS) is used to detect the effect of the compounds of the present disclosure on the expression level of PD-L1 in MDA-MR-231 cells.
Phosphate buffer (DPBS), 1640 medium, penicillin-streptomycin, fetal bovine serum, non-essential amino acids, 2-hydroxy-1-ethanethiol (2-ME), human interferon γ, LIVE/DEAD staining solution, staining buffer, fixation buffer, 0.25% trypsin, EDTA, anti-human PD-L1, anti-human PD-L1 isotype.
1640 complete medium preparation: 50 mL of fetal bovine serum, 5 mL of non-essential amino acids, 5 mL of penicillin-streptomycin and 0.5 mL of 2-hydroxy-1-ethanethiol were added to 439.5 mL of 1640 medium, and evenly mixed.
10 mM EDTA preparation: 1 mL of 0.5M EDTA was added to 49 mL of DPBS, and evenly mixed.
1) MDA-MB-231 cell counting and plating: The culture flask was taken out, the medium was removed and the culture flask was rinsed once with DPBS. After the culture flask was rinsed, 3 mL of 0.25% trypsin was added to the culture flask and the culture flask was placed in a 37° C. incubator for 1.5 min. The culture flask was taken out, 9 mL of 1640 complete medium was added to stop the reaction, the cells was transferred to a 50 mL centrifuge tube, and centrifuged at 1000 rpm for 5 min at 37° C. An appropriate volume of medium was added to re-suspend the cells according to the number of cells, and the number of cells was counted with a cell counter. The cell concentration was adjusted to 5×10^5 cells/mL with medium. Planking: A volume of 200 μL of cell suspension was added to each well of a 96-well plate, ensure that the number of cells in each well was 1×10^5. The cells were incubated overnight in an incubator. 2) Drug incubation: 100-fold dilution of compounds were prepared, and the drug was subjected to a 5-fold gradient dilution. 2 μL of each 100-fold dilution of compounds were added to each well. The cells were incubated in an incubator at 37° C. for 24 hours. 3) PD-L1 cell staining and FACS detection: the culture plate was taken out and the supernatant medium was discarded. The cells were washed once with 200 μL 1×PBS. 100 μL of EDTA (final concentration of 10 mM) was added to the cell suspension, and the cell suspension was treated at 37° C. for 10 min. Then after the cell suspension was centrifuged at 1500 rpm for 5 min, the cell suspension was washed once with 200 μL of staining solution. Staining: anti-human PD-L1 (2 μL per well) and LIVE/DEAD staining solution (1:1000) were diluted in staining solution, 50 μL of the staining solution was added to each well, and the staining was conducted at 4° C. for 30 min. Then the solution was washed twice with 200 μL of staining solution. Fixation: 100 μL of fixing solution was added to each well, the fixation was conducted at 4° C. for 15 min. The solution was then washed twice with 200 μL of staining solution, and 150 μL of solution was added to re-suspend the cells, followed by FACS detection.
Table 2 provides the effects of the compounds of the examples of the present disclosure on the expression level of PD-L1 in MDA-MR-231 cells.

In a further assay the target is PD1/PD-L1 (Homo sapiens, UniProt Q9NZQ7). The assay is described as follows: NFAT activity test (TCR Activitor/PD-L1 CHO cells with PD-1/NFAT Reporter-Jurkat cells). In kind it is cell-based. The settings on record: TCR Activitor/PD-L1 CHO cells + PD-1/NFAT Reporter-Jurkat cells, 5 hours, luciferase; for IC50: read-out: IC50, inhibitory activity on PD1/PD-L1 binding (NFAT activity test). Also noted: host or cells: TCR Activitor/PD-L1 CHO cells; PD-1/NFAT Reporter-Jurkat cells. The source says:
Experimental Example 3: NFAT Activity Test
The engineered T cell expresses PD-1 molecules and T cell receptor (TCR) on the surface, which can activate the NFAT signaling pathway of T cells after co-culturing with engineered antigen presenting cells (APCs). Expression of PD-L1 molecules on APCs can effectively attenuate the NFAT signaling pathway in T cells. PD-L1 inhibitors can be used effectively block the PD-1/PD-L1 regulatory mechanism, thereby reversing the weakened NFAT signaling pathway. After being pretreated with APC, the small molecule is co-cultured with T cells, then the expression of luciferase was detected to indirectly reflect the activation of the NFAT pathway in T cells.
The PD1/PD-L1 NFAT detection kit was purchased from BPS Biosciences. Birght-Glo reagent was purchased from Promega. Nivo multi-label analyzer (PerkinElmer).
The TCR Activitor/PD-L1 CHO cells with a growth confluence of 80% were plated into the plate at 35,000 cells per well and placed in a 37° C. cell culture incubator overnight; the compounds to be tested were diluted 5-fold to the 8th concentration, from 20 μM to 0.25 nM, and the DMSO concentration was 2%, a double-well experiment was set up. The TCR Activitor/PD-L1 CHO cell supernatant was discarded, 50 μl of compound working solution was added to each well, incubated at 37° C. for 30 minutes; after the incubation was completed, 50 μL of PD-1/NFAT Reporter-Jurkat cell suspension with a concentration of 4*10^5 cells/mL was added to each well, incubated at 37° C. for 5 hours. After the incubation was completed, 100 μL Bright-Glo was added to each well, and after mixing, the chemiluminescence signal was detected by a Nivo multi-label analyzer.
Using the equation (sample−Min)/(Max−Min)×100% to convert the raw data into inhibition rate, and the IC50 value can be obtained by curve fitting with four parameters (obtained from log(inhibitor) vs. response—Variable slope mode in GraphPad Prism). Table 3 provides the inhibitory activity of the compounds of the examples of the present disclosure on PD1/PD-L1 binding.

T1 sequence (Q9NZQ7 19-290): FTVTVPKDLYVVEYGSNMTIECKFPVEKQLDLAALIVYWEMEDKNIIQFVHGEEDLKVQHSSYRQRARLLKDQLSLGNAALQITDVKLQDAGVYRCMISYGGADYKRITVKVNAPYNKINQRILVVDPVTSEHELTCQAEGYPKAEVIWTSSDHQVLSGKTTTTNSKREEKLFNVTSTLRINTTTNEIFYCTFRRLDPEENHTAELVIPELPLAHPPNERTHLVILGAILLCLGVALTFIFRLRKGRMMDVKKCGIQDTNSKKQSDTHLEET
Sequence of PD1/PD-L1 (Q9NZQ7 19-290): as above

`COc1nc(-c2cccc(-c3cccc(NC(=O)c4cc(C#N)c5c(n4)CN(CCO)CC5)c3Cl)c2Cl)cnc1CN1CC(O)C1` [Compound 45]: the IC50 in assay [1] amounted to 7.81 nM; at PD1/PD-L1, 45.4 nM. Further, the “Maximum effect (induction fold)” value on PD1/PD-L1 worked out at 4.37 induction fold.
The matching figures for `COc1nc(-c2cccc(-c3cccc(NC(=O)c4cc(C)c5c(n4)CN(CC(O)CO)CC5)c3Cl)c2Cl)cnc1CN1CC(O)C1` (stereo not drawn) [Compound 30]: 10.5 nM, 26.6 nM and 4.80 induction fold.
The matching figures for `COc1nc(-c2cccc(-c3cccc(NC(=O)c4cc(C)c5c(n4)CN(CCO)CC5)c3Cl)c2Cl)cnc1CNCCO` [Compound 31]: 8.58 nM, 22.6 nM and 4.12 induction fold.
On the same counts, the results for `COc1nc(-c2cccc(-c3cccc(NC(=O)c4nc(C)c5c(n4)CN(CCO)CC5)c3Cl)c2Cl)cnc1CN1CC(O)C1` [Compound 36] are 95.8 nM, 46.5 nM and 3.20 induction fold.
In the case of `COc1nc(-c2cccc(-c3cccc(NC(=O)c4cc(OC(F)F)c5c(n4)CN(CCO)CC5)c3Cl)c2Cl)cnc1CN1CC2(CC(O)C2)C1` [Compound 62], at PD1/PD-L1, the “Maximum effect (induction fold)” value was found to be 4.37 induction fold and the IC50 turned out to be 13.5 nM.
On the same counts, the results for `COc1nc(-c2cccc(-c3cccc(NC(=O)c4cc(OCC#N)c5c(n4)CN(CCO)CC5)c3Cl)c2Cl)cnc1CN1CC(O)C1` [Compound 52] are 4.74 induction fold and 51.5 nM.
Consider `COc1nc(-c2cccc(-c3cccc(NC(=O)c4cc(C)c5c(n4)CN(CC4(CO)CC4)CC5)c3Cl)c2Cl)cnc1CN1CC(O)C1` [Compound 29], for which, on PD1/PD-L1, the “Maximum effect (induction fold)” value is listed as 3.52 induction fold and the IC50 was 52 nM.
With `COc1nc(-c2cccc(-c3cccc(NC(=O)c4cc(C)c5c(n4)CCN(CCO)C5)c3Cl)c2Cl)cnc1CN1CC(O)C1` [Compound 43], on PD1/PD-L1, the “Maximum effect (induction fold)” value turned out to be 5.16 induction fold and the IC50 is 242 nM.
The matching figures for `COc1nc(-c2cccc(-c3cccc(NC(=O)c4cc(C#N)c5c(n4)CN(CCO)CC5)c3Cl)c2Cl)cnc1CNCCO` [Compound 59]: 5.35 induction fold and 166 nM.
The matching figures for `COc1nc(-c2cccc(-c3cccc(NC(=O)c4cc(OC(F)F)c5c(n4)CN(CCO)CC5)c3Cl)c2Cl)cnc1CN1CC(C)(O)C1` [Compound 63]: 6.40 induction fold and 142 nM.
In the case of `COc1nc(-c2cccc(-c3cccc(NC(=O)c4cc(C#N)c5c(n4)CN(CCO)CC5)c3Cl)c2Cl)cnc1CN1CC(C)(O)C1` [Compound 58], at PD1/PD-L1, the “Maximum effect (induction fold)” value was 5.01 induction fold and the IC50 came to 104 nM.
For `Cc1cc(C(=O)Nc2cccc(-c3cccc(NC(=O)c4ccc(CNCCO)cn4)c3C)c2Cl)nc2c1CCN(C1CCNCC1)C2` [Compound 14], in assay [1], the IC50 turned out to be 96.9 nM.
As for `COc1nc(-c2cccc(-c3cccc(NC(=O)c4cc(OC(F)F)c5c(n4)CN(CCO)CC5)c3Cl)c2Cl)cnc1CN1CCC(CO)C1` (stereo not drawn) [Compound 64], on PD1/PD-L1, the “Maximum effect (induction fold)” value is 3.98 induction fold and the IC50 is 16.5 nM.
Consider `COc1nc(-c2cccc(-c3cccc(NC(=O)c4cc(C#N)c5c(n4)CN(CCO)CC5)c3Cl)c2Cl)cnc1CN1CC(CO)C1` [Compound 60], for which, on PD1/PD-L1, the “Maximum effect (induction fold)” value is on record as 4.95 induction fold and the IC50 came out at 55.5 nM.
On to `COc1cc(C(=O)Nc2cccc(-c3cccc(-c4cnc(CN5CCC(CO)C5)c(OC)n4)c3Cl)c2Cl)nc2c1CCN(CCO)C2` (stereo not drawn) [Compound 56], for which, at PD1/PD-L1, the “Maximum effect (induction fold)” value came to 2.75 induction fold and the IC50 is 10.1 nM.
On the same counts, the results for `COc1nc(-c2cccc(-c3cccc(NC(=O)c4cc(C)c5c(n4)CN(CC(C)(C)O)CC5)c3Cl)c2Cl)cnc1CN1CC(O)C1` [Compound 28] are 3.63 induction fold and 34.8 nM.
The matching figures for `COc1cc(C(=O)Nc2cccc(-c3cccc(-c4cnc(CN5CC(CO)C5)c(OC)n4)c3Cl)c2Cl)nc2c1CCN(CCO)C2` [Compound 55]: 4.56 induction fold and 25.2 nM.
With `COc1cc(C(=O)Nc2cccc(-c3cccc(-c4cnc(CNCCO)c(OC)n4)c3Cl)c2Cl)nc2c1CCN(CCO)C2` [Compound 54], on PD1/PD-L1, the “Maximum effect (induction fold)” value was 3.91 induction fold and the IC50 came out at 38.5 nM.
For the molecule `COc1nc(-c2cccc(-c3cccc(NC(=O)c4cc(C#N)c5c(n4)CN(CCO)CC5)c3Cl)c2Cl)cnc1CN1CC2(CC(O)C2)C1` [Compound 57], on PD1/PD-L1, the “Maximum effect (induction fold)” value is 4.42 induction fold and the IC50 was 40.7 nM.
Regarding `COc1nc(-c2cccc(-c3cccc(NC(=O)c4cc(C#N)c5c(n4)CN(CCO)CC5)c3Cl)c2Cl)cnc1CN1CCC(CO)C1` (stereo not drawn) [Compound 61], on PD1/PD-L1, the “Maximum effect (induction fold)” value was found to be 4.99 induction fold and the IC50 came out at 53.8 nM.
The matching figures for `COc1cc(C(=O)Nc2cccc(-c3cccc(-c4cnc(CN5CC6(CC(O)C6)C5)c(OC)n4)c3Cl)c2Cl)nc2c1CCN(CCO)C2` [Compound 53]: 3.81 induction fold and 13.7 nM.
Molecule `COc1nc(-c2cccc(-c3cccc(NC(=O)c4cc(C)c5c(n4)CN(CCO)CC5)c3Cl)c2Cl)ccc1CN1CC(O)C1` [Compound 37] showed an IC50 in assay [1] of 28.1 nM.
With `COc1nc(-c2cccc(-c3cccc(NC(=O)c4cc(C)c5c(n4)CN(CC(C)O)CC5)c3Cl)c2Cl)cnc1CN1CC(O)C1` (stereo not drawn) [Compound 44], on PD1/PD-L1, the “Maximum effect (induction fold)” value came out at 5.15 induction fold and the IC50 was 207 nM.
